One data set relates to MRSA ATCC49476. The experiment in a line: Antibacterial activity assay (MIC, broth microdilution). The data set is classed as cell-based, Staphylococcus aureus. The following applies: for MIC: Staphylococcus aureus. On the technique in general: Broth dilution looks for growth in wells or tubes with falling amounts of substance.
A further data set relates to VRSA SJC1200. The data set is described as above. Type of data set: cell-based, Staphylococcus aureus. The following applies: for MIC: Staphylococcus aureus, VRSA.
A short description of data set [1]: Antiproliferation assay (MTT). Type of data set: cell-based, murine. The following applies: mouse, RAW264.7 macrophage cells, read-out: CC50 of SC5005. As to the method: (§1) FIG. 2: The biofilms of S. aureus NCTC8325 (the upper left graph) and MRSA USA300 (the upper right graph) were treated with increasing concentrations of blank control (Mock), DHA, daptomycin (DAP), vancomycin (VAN), SC5005, and SC5005 in combination with DHA for 24 hours. The number of viable bacteria was then determined using a cfu assay. The data represent individual experiments and are shown as the mean±SD (n=3 per group). ns, nonsignificant, p>0.05; *p<0.05; **p<0.01; ***p<0.001. (The lower left graph) the biofilms of MRSA USA300 were treated with blank control (Mock) or SC5005 along with 80 mg/L DHA for 1, 3 or 10 minute(s). The viable bacteria in the biofilms harvested and enumerated using a cfu assay. The data represent independent experiments and are shown as mean±SD (n=3 per group). ns, nonsignificant, p>0.05; *p<0.05; **p<0.01; ***p<0.001 (The lower right graph) RAW264.7 cells were exposed to a blank control (Mock) or increasing concentrations of SC5005 and 80 mg/L DHA for […]. The viability of cells was determined by the MTT assay and expressed as a percentage relative to mock (DMSO and ethanol)-treated cells. The data shown are the mean±SD (n=3 per group).
The murine macrophage cell line RAW264.7 (BCRC) and human cervical epithelioid carcinoma cell line HeLa (BCRC) were maintained in Dulbecco's modified Eagle's medium (DMEM; Gibco-BRL) supplemented with 10% heat-inactivated FBS (Gibco-BRL). The human embryonic kidney cell line HEK-293 (BCRC) and the immortalized nontumorigenic keratinocyte cell line HaCaT (obtained from Dr. Yung-Chiy Chang, National Taiwan University, Taiwan) were maintained in Roswell Park Memorial Institute (RPMI; Gibco-BRL) medium supplemented with 10% heat-inactivated FBS. Cells were cultured in T-75 flasks at 37° C. in a 5% CO2 atmosphere.
The effects of SC5005 and DHA on the viability of mammalian cells were assessed using a 3-(4,5-dimethylthiazol-2-yl)-2,5-diphenyl-2H-tetrazolium bromide (MTT) assay in six replicates per treatment group. Briefly, cells were seeded into 96-well, flat-bottomed plates at 10^4 cells/well, cultured for 24 hours, and then exposed to SC5005 at concentrations ranging from 5-30 mg/L or the combination of SC5005 with designated concentrations of DHA for 24 hours. Controls were treated with DMSO and ethanol vehicles at concentrations equal to those for drug-treated cells. At the end of treatments, the medium was replaced with 0.5 g/L MTT-containing culture medium, and the cells were incubated in a CO2 incubator at 37° C. for an additional 1.5 hours. Supernatants were removed from the wells, and the reduced MTT dye was solubilized in DMSO followed by measuring the absorbance at 570 nm of each well using a VersaMax microplate reader (Molecular Devices, USA).

In the next data set the test system is MRSA USA300. Briefly: Time-kill kinetics (cfu assay). The data set is classed as cell-based, Staphylococcus aureus. To be noted: SC5005 4×MIC, 1 mg/L; FIG. 1. The procedure:
(§2) The number of viable bacteria in broth after each exposure period was enumerated by a cfu assay and expressed as cfu/mL; the data shown are the mean±SD (standard deviation) of independent experiments. […] The number of viable bacteria in the broth after each exposure period was calculated by a cfu assay (cfu/mL); the data are shown as the mean±SD of three independent experiments (n=3 for each group). Since the standard deviation of each point is very small, the error line is not shown in each graph. The horizontal dashed line in the upper left graph and the upper right graph represents […] of the bacterial cells killed. In addition, the blank controls in FIG. 1 are shown as filled diamonds.
In this experiment, the inventor analyzed the time-kill kinetics of SC5005, DHA, and a combination thereof against Staphylococcus aureus NCTC8325 and MRSA USA300, and the results are shown in FIG. 1. It can be seen in FIG. 1 that SC5005 killed more than 99.9% of the bacteria within 24 hours. […] Besides, it is well known in the art that Staphylococcus aureus can enter a dormant state (i.e., become the so-called persister cells) and develop resistance to antibiotic treatment, thus leading to repeated bacterial infections.

Data set [2] has as its system MRSA USA300 persister cells. The experiment in a line: Persister killing assay. Type of data set: cell-based, Staphylococcus aureus. The following applies: SC5005 16×MIC, 4 mg/L; FIG. 1. The procedure: as §2
(§3) Bacteria were collected by centrifugation at 4000×g for 10 min at 4° C., washed with ice-cold PBS, and suspended in PBS with test agents. Controls received DMSO and ethanol vehicles at concentrations equal to those for drug-treated bacteria. At the designated times, the number of viable bacteria was assessed by serial dilution of a 100 μL aliquot bacterial suspension in PBS and then spread onto LB agar plates. After incubation at 37° C. for 18-24 hours, the number of colonies was counted and expressed as cfu/mL.

Data set [3] relates to S. aureus NCTC8325 persister cells. The experiment in a line: Persister killing assay. The data set is classed as cell-based, Staphylococcus aureus. The following applies: SC5005 16×MIC, 4 mg/L; FIG. 1. The procedure:
as §2, §3

Another data set has as its system biofilms of MRSA USA300. The experiment in a line: Biofilm eradication assay. Type of data set: cell-based, Staphylococcus aureus. As to the method: as §1
(§4) The eradication activity of daptomycin, vancomycin, experimental acyl compounds and experimental acyl compounds along with fatty acids against biofilms of microorganisms was evaluated as described above. Briefly, bacteria were grown in tryptic soy broth (Becton Dickinson, USA) and biofilms were formed on the pegs of the lid of a 96-well dish immersed in bacterial cultures at 5×10^5 cfu/mL. […] After incubation at 37° C. for 24 hours, the peg-lids were washed and placed onto a new 96-well plate with fresh CAMHB in each well and sonicated for 5 minutes to disrupt the biofilm on the pegs, followed by a cfu assay to assess the number of viable bacteria in each well. To determine the minimum biofilm removal concentration, the 96-well plates were covered with new lids and incubated at 37° C. for 24 hours, and then the viable bacteria in each well were counted using the cfu assay.

Data set [4] relates to biofilms of S. aureus NCTC8325. Briefly: Biofilm eradication assay. The data set is classed as cell-based, Staphylococcus aureus. The following applies: 24 hours; FIG. 2. The procedure:
as §1, §4

From patent US20260130885A1, “ANTIMICROBIAL COMPOSITIONS, PHARMACEUTICAL COMPOSITIONS AND USE THEREOF” (priority 2022, published 2026) come the findings set out here.

Values after ≈ are worked out from the molar mass of the structure shown. Like-named read-outs stand apart in the source and are kept apart here. Where only a bound is given, the exact number is not on record here.

In general, MIC refers to the lowest concentration that inhibits growth of the organism. Read a low MIC as a more susceptible organism. The term CC50 denotes the concentration at which the toxic effect on the cells reaches its halfway point. Take `O=C(Nc1ccc(Cl)c(C(F)(F)F)c1)C(CCCl)C(=O)Nc1ccc(Cl)c(C(F)(F)F)c1` [SC5005]: the combination effect entry in the data set on MRSA ATCC49476 (MIC, +8 mg/L DHA) is recorded as “(Syn) (Synergy (Syn) was defined as an FICI≤0.5)”; in the data set with VRSA SJC1200 (MIC, +8 mg/L DHA), “(Syn) (Synergy (Syn) was defined as an FICI≤0.5)”. Further, the minimal inhibitory concentration (MIC) against MRSA ATCC49476 (+8 mg/L DHA) is 0.00095 ng/mL (≈ 0.00182 nM); against MRSA ATCC49476 (agent alone) it was 250 ng/mL (≈ 479 nM); with VRSA SJC1200 (+8 mg/L DHA), 0.0019 ng/mL (≈ 0.00364 nM); in the data set on VRSA SJC1200 (agent alone) it was 250 ng/mL (≈ 479 nM). The CC50 at 24 h in data set [1] (DHA 0 mg/L) is 19.5 ± 0.6 µg/mL; in data set [1] (DHA 4 mg/L) it was 22.6 ± 0.8 µg/mL; in data set [1] (DHA 8 mg/L) it was 19.7 ± 2.5 µg/mL; in data set [1] (DHA 16 mg/L), 21.2 ± 2.3 µg/mL. Also, the “bacteria killed within 24 hours” value with MRSA USA300 is “more than 99.9%”. The “time to eradication of persister cells” value in data set [2] and in data set [3] was at most 24 h throughout. Further, the “biofilm removing activity (in words)” value in the data set with biofilms of MRSA USA300 (24 hours, FIG. 2) was “superior biofilm removing activity in comparison with daptomycin and vancomycin”; in data set [4] it was “superior biofilm removing activity in comparison with daptomycin and vancomycin”. For the same molecule, in the data set with biofilms of MRSA USA300 (DHA concentration 80 mg/L, strain not given), the “increase of the biofilm removing activity of SC5005” value is on record as 32 times.
